Tests used:
GM00371 cells = assay: Viability assay (Cell titer glo) in the 3-HIB assay; type: cell-based, human; conditions: Homo sapiens, 24 h, read-out: 3HIB INHIBITION IC50 (μM) MEAN GM00371 cells Viablility Assay
Protocol: (§1) Cell Plating: Cells (Coriell Institute GM00371 cells) were plated (96-well clear bottom sterile plate; Greiner 655098) at 10,000 cells/0.1 mL in Eagle's minimum essential medium (EMEM)/15% FBS (Gibco 16000-044) with a Combi dispenser in a cell culture hood and incubated at 37° C. and 5% CO2 overnight.
(§2) Compound Dilution: Compound were prepared as 33.3× intermediate dilution in DMSO in 96 well round polystyrene plates. For 30 μM final maximum start with 30 μL of 10 mM in DMSO. 10-12 1:3 serial dilutions were prepared from left to right (20 μL+40 μL DMSO). A 10× secondary dilution was prepare in EMEM by taking 7.5 μL 33.3× and transfer to replicate 96 well round polystyrene plates and then adding 242.5 μL EMEM A 1× final dilution in EMEM was prepared by taking 50 μL 10× dilution and transferring to replicate 96 well polypropylene assay block (Costar 3956) and adding 450 μL EMEM A control was prepared for maximal compound inhibition by taking 20 μL 10 mM Reference Compound A and adding 40 μL DMSO for a concentration of 3.3 mM To 7.5 μL of the 3.3 mM Reference Compound A solution and added 242.5 μL EMEM to make a 100 μM solution. The subsequent Reference Compound A solution was diluted with EMEM to achieve a final concentration of 10 μM. The structure of Reference Compound A is:
(§3) A control was prepared for maximal compound toxicity by taking 7.5 μL Reference Compound B and 242.5 μL EMEM to make […]. 50 μL of that 100 μM Reference Compound B solution was combined with 450 μL EMEM to achieve a concentration of 30 μM. The structure of Reference Compound B is
(§4) Compound Treatment: Media was aspirated from the cells and 100 μL of D-PBS (ThermoFisher 14190144) was added and then removed. 100 μL of diluted compound was added to the cells in the place and the cells were incubated at 37° C. and 5% CO2 for 24 hours.
Viability Assay: To the cells remaining in the plate 25 μL D-PBS and 25 μL Cell titer glo reagent (Promega G7572). The plate was placed on a shaker for 2 minutes, incubated at room temperature in the dark and then read on a Clariostar microplate reader.

BCAT1 = molecular target: T1, BCAT1 (Homo sapiens, UniProt P54687); assay: BCAT1 enzyme inhibition (human), Glutamate Glo luminescence; type: biochemical
T1 sequence (P54687 1-386): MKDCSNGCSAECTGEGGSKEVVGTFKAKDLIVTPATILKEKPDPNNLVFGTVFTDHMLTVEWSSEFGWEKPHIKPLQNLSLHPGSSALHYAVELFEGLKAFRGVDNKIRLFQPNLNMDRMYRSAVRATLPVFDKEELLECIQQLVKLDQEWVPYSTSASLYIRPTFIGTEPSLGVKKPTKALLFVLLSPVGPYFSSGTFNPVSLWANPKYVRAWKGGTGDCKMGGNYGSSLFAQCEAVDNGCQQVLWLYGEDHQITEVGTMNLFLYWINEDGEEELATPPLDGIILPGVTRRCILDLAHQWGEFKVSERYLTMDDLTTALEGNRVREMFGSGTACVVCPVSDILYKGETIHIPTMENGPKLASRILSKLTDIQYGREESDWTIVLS
Protocol: The BCAT1 inhibitory activity of selected compounds of the present disclosure were also evaluated. Compounds were prepared as up to 10 mM stock solutions generally using DMSO as the vehicle. 10-point dose response curves were generated using the Echo-550 (Labcyte) acoustic dispenser. Compound source plates ([…]) were made by serially diluting compound stocks to create 1 mM, 0.1 mM, and 0.01 mM solutions in DMSO into Echo certified LDV plates. The Echo then serially spotted 100% DMSO stock solutions into source dose response plates to generate a semi-log fold dilution scheme. 100% DMSO was added to the spotted dose response plates to bring the final volume to 5 μL, creating a 333× stock plate. 120 nL of the dose response stock plate was then spotted into the assay plate. 10 μL of assay buffer (50 mM Tris with 0.05% TWEEN-20) was then added to the plates resulting in a 4× working concentration in the assay plate. Final assay test concentration range was 3 μM to 0.0001 μM with a final DMSO concentration of 0.3%.
BCAT1 enzyme stock was first diluted to a 4× working concentration of 0.24 μg/mL in assay buffer (final assay concentration is 0.06 ug/ml). 10 μL of the 4×BCAT1 solution was then added to the previously prepared assay plate containing test compound or controls, and incubated at room temperature, protected from light, for either 10 or 60 minutes. After the compound incubation period, 20 μL of assay buffer plus 2× substrate is added to all wells (Final assay concentration of substrates is 300 μM L-leucine and 250 μM alpha-ketoglutaric acid). Enzyme reaction was then incubated for 10 minutes at room temperature. After the 10 minute incubation, the enzymatic reaction was halted with the addition of 5 μL of 0.6N HCl and incubated for 1 min. 5 μL of 1M Tris (pH 8.0) was then added to neutralize pH. 12.5 μL of the quenched assay volume was then transferred to a white, 384 well plate and 12.5 μL of Glutamate detection reagent was added (detection reagent prepared per Promega Glutamate Glo kit instructions). Plates were then incubated for 30 minutes at room temperature, protected from light. After glutamate detection incubation period, luminescence was read on BMG Novostar and relative light units was measured and exported for analysis.
Compound modulation of BCAT1 enzymatic activity was determined as follows. IC50 values were calculated in ActivityBase, using a 4-parameter fit equation. Data was normalized to maximum inhibition form the reference agent VS558CSA (at 10 μM). Relative light units were exported for analysis and % inhibition values for each well were calculated using the following formula: […]

BCAT2 = molecular target: T2, BCAT2 (Homo sapiens, UniProt O15382); assay: BCAT2 enzyme inhibition (human); type: biochemical
T2 sequence (O15382 28-392): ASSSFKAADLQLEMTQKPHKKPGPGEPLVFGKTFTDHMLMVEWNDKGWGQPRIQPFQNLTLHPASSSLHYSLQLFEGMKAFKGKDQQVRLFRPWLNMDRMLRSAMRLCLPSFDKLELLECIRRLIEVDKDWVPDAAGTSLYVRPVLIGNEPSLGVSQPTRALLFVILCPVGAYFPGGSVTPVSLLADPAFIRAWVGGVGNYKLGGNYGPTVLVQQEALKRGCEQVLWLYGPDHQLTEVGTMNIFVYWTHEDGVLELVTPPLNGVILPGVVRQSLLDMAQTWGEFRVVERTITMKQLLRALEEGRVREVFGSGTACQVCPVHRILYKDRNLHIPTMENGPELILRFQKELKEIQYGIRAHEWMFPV
Summary of the method: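 Cell-free coupled fluorescent assay: human BCATm converts branched-chain amino acids and α-ketoglutarate to L-glutamate, which L-glutamate oxidase and HRP link to resorufin formation from Amplex Red; activity taken as reduced glutamate signal.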

[1] = 3-HIB assay in vitro, direct MS assay of conditioned media; type: cell-based, human; conditions: Homo sapiens, 24 h, GM00371 cells, read-out: 3HIB INHIBITION IC50 (μM) MEAN GM00371 cells Direct MS Assay
Protocol: as §1, §2, §3
A DMSO Control was prepared by dilution 7.5 μL with 242.5 μL EMEM and taking 50 μL of the subsequent solution and diluting with 450 μL EMEM.
as §4
Collection of Conditioned Media: For 3HIB MS detection: 20 μL conditioned media was removed from the cells and was transferred to a labeled replicate 96 well polypropylene assay plate (VWR 62408-946). And the plate was heat sealed and stored at −80° C.
3HIB Derivatization (Generalized SOP): The media collected for 3HIB MS detection was derivatized under the following conditions. Buffer: 0.1M 1-Ethyl-3-(3-dimethylaminopropyl)carbodiimide (EDC) dissolved in 0.1 M 2-(N-morpholino)ethanesulfonic acid ([…]) adjusted to pH 5.6. Buffer prep: weighed 10.6 g MES (Sigma #M-5287) per 500 mL HPLC grade H2O. Stored at 4° C.; 0.1M EDC: Weighed 1.971 g EDC (#E-1769) per 100 mL MES. Adjusted pH to 5.6 with ˜40 drops of 1N NaOH and stored at 4° C. Buffer has a short half-life should be used within two weeks.
Derivatization: To 20 μL sample was added 60 μL 5 uM 3HIB-4C13 internal standard followed by 20 μL EDC in MES and 100 μL MES. The plate was sealed and incubate at 50° C. for […] then centrifuged at 4000 rpm at 6° C. for 10 minutes. LC-MS analysis was then conducted and the data was processed using standard methods.

SMILES	IC50 (GM00371 cells) [µM]	IC50 (BCAT1) [nM]	IC50 (BCAT2) [nM]	IC50 [1] [µM]
CNC(=O)c1ccc2c(c1)nc(-c1ncccc1F)n2[C@H]1CCC[C@@H](NC(=O)c2ccc(C#N)s2)C1 [Compound 198]	≥ 1	100 to 500	< 100	–
CNC(=O)c1cc2nc(-c3ccccc3F)n(C3CCC[C@@H](NC(=O)c4ccc(F)s4)C3)c2cc1F (stereo partly shown) [Compound 226]	0.5 to 1	100 to 500	< 100	–
CNC(=O)c1ccc2c(c1)nc(-c1ccc(F)cc1O)n2[C@H]1CCC[C@@H](NC(=O)c2ccc(C#N)s2)C1 [Compound 188]	–	–	< 100	0.1 to 0.5
CNC(=O)c1ccc2c(c1)nc(-c1ccccc1C(N)=O)n2[C@H]1CCC[C@@H](NC(=O)c2ccc(Br)s2)C1 [Compound 143]	≥ 1	≥ 1000	< 100	–
O=C(N[C@@H]1CCC[C@H](n2c(-c3ccccc3F)nc3cccnc32)C1)c1ccc(Br)s1 [Compound 285]	0.5 to 1	500 to 1000	< 100	–
CNC(=O)c1cc2nc(-c3ccccc3F)n([C@H]3CCC[C@@H](NC(=O)c4ccc(Cl)s4)C3)c2cc1F [Compound 206]	0.1 to 0.5	< 100	< 100	–
CNC(=O)c1ccc2c(c1)nc(-c1sccc1C)n2[C@H]1CCC[C@@H](NC(=O)c2ccc(Br)s2)C1 [Compound 169]	≥ 1	≥ 1000	< 100	–
CC(=O)c1ccc2c(c1)nc(-c1ccccn1)n2[C@H]1CCC[C@@H](NC(=O)c2ccc(Br)s2)C1 [Compound 196]	≥ 1	≥ 1000	< 100	–
CNC(=O)c1ccc2c(c1)nc(-c1ccccc1C(F)F)n2C1CCC[C@@H](NC(=O)c2ccc(Cl)s2)C1 (stereo partly shown) [Compound 222]	0.1 to 0.5	100 to 500	< 100	–
CNC(=O)c1ccc2c(c1)nc(-c1ccccc1[N+](=O)[O-])n2C1CCCC(NC(=O)c2ccc(C#N)s2)C1 (stereo not shown) [Compound 200]	≥ 1	100 to 500	< 100	–
CNC(=O)c1cc2nc(-c3cccc(F)c3)n(C3CCC[C@@H](NC(=O)c4ccc(F)s4)C3)c2cc1F (stereo partly shown) [Compound 225]	≥ 1	≥ 1000	< 100	–
CNC(=O)c1cc2nc(-c3cccc(F)c3)n(C3CCC[C@@H](NC(=O)c4ccc(Cl)s4)C3)c2cc1F (stereo partly shown) [Compound 224]	0.1 to 0.5	100 to 500	< 100	–
CNC(=O)c1cc2nc(-c3sccc3F)n([C@H]3CCC[C@@H](NC(=O)c4ccc(Cl)s4)C3)c2cc1F [Compound 230]	≥ 1	500 to 1000	< 100	–
CNC(=O)c1ccc2c(c1)nc(-c1ccccn1)n2[C@H]1C[C@@H](NC(=O)c2ccc(Br)s2)CC(F)(F)C1 [Compound 239]	0.1 to 0.5	≥ 1000	100 to 500	–
CNC(=O)c1ccc2c(c1)nc(-c1ccccc1C(F)F)n2C1CCC[C@@H](NC(=O)c2ccc(Br)s2)C1 (stereo partly shown) [Compound 223]	0.1 to 0.5	< 100	< 100	–
CNC(=O)c1ccc2c(c1)nc(-c1ccccc1OC(F)(F)F)n2[C@H]1CCC[C@@H](NC(=O)c2ccc(Br)s2)C1 [Compound 166]	0.1 to 0.5	500 to 1000	< 100	–
CNC(=O)c1cc2nc(-c3ccccn3)n(C3COCC(NC(=O)c4ccc(Br)s4)C3)c2cc1F (stereo not shown) [Compound 234, 1-(5-(5-bromothiophene-2-carboxamido)tetrahydro-2H-pyran-3-yl)-6-fluoro-N-methyl-2-(pyridin-2-yl)-1H-benzo[d]imidazole-5-carboxamide]	≥ 1	100 to 500	< 100	–
O=C(N[C@@H]1CCC[C@H](n2c(-c3ncccc3F)nc3cnccc32)C1)c1ccc(Br)s1 [Compound 284]	≥ 1	100 to 500	< 100	–
CNC(=O)c1ccc2c(c1)nc(-c1ccccc1C(F)F)n2C1CCC[C@@H](NC(=O)c2ccc(C#N)s2)C1 (stereo partly shown) [Compound 221]	≥ 1	100 to 500	< 100	–
CNC(=O)c1ccc2c(c1)nc(-c1cccs1)n2[C@H]1CCC[C@@H](NC(=O)c2ccc(Cl)s2)C1 [Compound 189]	–	–	< 100	0.1 to 0.5
CNC(=O)c1cc2nc(-c3ccccc3C)n([C@H]3CCC[C@@H](NC(=O)c4ccc(Cl)s4)C3)c2cc1F [Compound 205]	≥ 1	100 to 500	< 100	–

From patent US20220274967A1, “BCAT MODULATION” (Icagen, LLC, priority 2019, published 2022)
